Data published in patent US20260335320A1, “ANTI-VIRULENCE AGENTS AND METHODS FOR THE TREATMENT OF PATHOGENIC BACTERIUM” (priority 2023, published 2026).
Where two headings read alike, the source gives them in different places.

What was measured:
Mycobacterium abscessus = assay: Intracellular invasion/survival in THP-1-derived macrophages; format: cell-based; settings: 25 μM, 2 h plus 2 h with amikacin
Protocol: FIG. 9. BFA compounds reduce the virulence of M. abscessus. FIG. 9 provides a graph showing the results after THP-1-derived macrophages were infected with ~5×10^5 CFU/M. abscessus strain ATCC19977 and 25 μM of the indicated BFA or DMSO vehicle control for 2 hours. Cells were washed and treated with the same BFA and 500 μg/mL amikacin (to kill extracellular bacteria) for 2 hours.
To determine whether BFA compounds could inhibit the virulence of Mycobacterium abscessus THP-1-derived macrophages were used.

[1] = tested on: P. aeruginosa strain PA14; assay: P. aeruginosa-induced cytotoxicity of A549 cells (LDH release); settings: 25 μM, 5.5 hours
[2] = tested on: Burkholderia FixLJ pathway (Fix-GFP reporter in B. multivorans strain VC7102); assay: Fix-GFP reporter activation screen (GFP fluorescence)
B. thailandensis = assay: microbe, parasite or virus in culture; format: cell-based
B. cenocepacia = assay: Invasion/intracellular survival in THP-1-derived macrophages; format: cell-based; settings: 4 h
B. dolosa strain AU0158 = assay: Invasion of and/or intracellular survival in THP-1-derived macrophages, antibiotic exclusion assay; format: cell-based, B. dolosa strain AU0158 (in human THP-1-derived macrophages)
B. multivorans = assay: Invasion/intracellular survival in THP-1-derived macrophages; format: cell-based; settings: 4 h

CCc1ccccc1N1CC(c2nc3ccccc3n2CCCCOc2ccccc2)CC1=O (centres unmarked) [BFA3, 1-(2-ETHYLPHENYL)-4-[1-(4-PHENOXYBUTYL)-1H-1,3-BENZODIAZOL-2-YL]PYRROLIDIN-2-ONE]
inhibition of intracellular invasion/survival of M. abscessus (Mycobacterium abscessus): able to inhibit the intracellular invasion/survival within the macrophages | inhibition of PA14-induced cytotoxicity [1]: able to significantly reduce cytotoxicity

NC(CO)C(=O)NNCc1ccc(O)c(O)c1O (centres unmarked) [Benserazide, benserazide]
GFP activity above the mean of the negative control (DMSO) [2]: more than 3 standard deviations

CCCCN(C)CCCNC(=O)Cn1ncc2c3ccccc3n(Cc3cccc(Cl)c3)c2c1=O [BFA7, N-{3-[Butyl(Methyl)Amino]Propyl}-2-{5-[(3-Chlorophenyl)Methyl]-4-Oxo-3h,4h,5h-Pyridazino[4,5-B]Indol-3-Yl}Acetamide]
inhibition of intracellular invasion/survival of M. abscessus (Mycobacterium abscessus): able to inhibit the intracellular invasion/survival within the macrophages | inhibition of PA14-induced cytotoxicity [1]: able to significantly reduce cytotoxicity

COCCNC(=O)CCn1c(=O)c2cc(OC)c(OC)cc2n(CC(=O)Nc2ccccc2OC)c1=O [BFA2, 3-(6,7-Dimethoxy-1-{[(2-Methoxyphenyl)Carbamoyl]Methyl}-2,4-Dioxo-1,2,3,4-Tetrahydroquinazolin-3-Yl)-N-(2-Methoxyethyl)Propanamide]
inhibition of intracellular invasion/survival of M. abscessus (Mycobacterium abscessus): able to inhibit the intracellular invasion/survival within the macrophages

Cc1ccccc1-n1c(/C=C/c2ccc(N(C)C)cc2)nc2ccccc2c1=O [BFA6, 2-[(1E)-2-[4-(DIMETHYLAMINO)PHENYL]ETHENYL]-3-(2-METHYLPHENYL)-3,4-DIHYDROQUINAZOLIN-4-ONE]
inhibition of invasion/survival of B. thailandensis (B. thailandensis): able to inhibit the invasion/survival of B. thailandensis | inhibition of PA14-induced cytotoxicity [1]: able to significantly reduce cytotoxicity

CCCCCCc1cc2cc(-c3nnc(-c4ccc(C)cc4)o3)c(=O)oc2cc1O [BFA1, 6-HEXYL-7-HYDROXY-3-[5-(4-METHYLPHENYL)-1,3,4-OXADIAZOL-2-YL]-2H-CHROMEN-2-ONE]
inhibition of invasion/survival of B. thailandensis (B. thailandensis; 25 μM, 4 h): able to inhibit the invasion/survival of B. cenocepacia (FIG. 3B) and B. thailandensis | minimal effective concentration (B. thailandensis; Burkholderia thailandensis, Macrophage, 2 h, read-out: dose inhibiting invasion/survival of B. thailandensis): 6.25 µM | inhibition of invasion/survival of B. cenocepacia (B. cenocepacia; 25 μM): able to inhibit the invasion/survival of B. cenocepacia | dose needed to inhibit B. cenocepacia (B. cenocepacia; dose range, compared with 6.25 μM): higher doses were needed to inhibit B. cenocepacia | inhibition of intracellular invasion/survival of M. abscessus (Mycobacterium abscessus): able to inhibit the intracellular invasion/survival within the macrophages | inhibition of invasion/survival of B. dolosa in macrophages (B. dolosa strain AU0158): inhibited virulence at a lower concentration and at a greater magnitude than the other BFA compounds | inhibition of invasion/survival of B. dolosa in macrophages (B. dolosa strain AU0158; for BFA 2-8 at highest dose tested): ~ 75% | inhibition of invasion/survival of B. multivorans (B. multivorans; 25 μM, THP-1-derived macrophages): inhibited the invasion/survival of all three additional Burkholderia species | minimal effective concentration (B. multivorans; Burkholderia multivorans, Macrophage, read-out: dose inhibiting invasion/survival of B. multivorans): 6.25 µM
